Source: publication PMC10418735, “Lipophilic Studies and In Silico ADME Profiling of Biologically Active 2-Aminothiazol-4(5H)-one Derivatives” (International Journal of Molecular Sciences, 2023)

Key:
[1] = Lipophilicity by RP-HPLC (methanol/water, RP-18 column); assay type: physicochemical; details: for −S (slope of the regression curve), RP–HPLC / log kw: methanol/water, RP-HPLC; for log kw: extrapolated to zero methanol concentration, 25 °C; for Φ0 (chromatographic lipophilicity parameter), RP–HPLC: Φ0 = −log kw/S
Method: The HPLC experiments were performed on the Shimadzu HPLC system (Kyoto, Japan) equipped with solvent delivery pump LC-20AD, UV–VIS detector model SPD-20A, degasser model DGU-20A5, a column oven model CTO-20A, and a column Superspher® 100 RP-18 (4 μm), Merck (Darmstadt, Germany). Methanol and water for HPLC from POCH (Gliwice, Poland) were used as solvents. Mobile phase methanol/water varied in the various ratios. Methanol concentration expressed as volume fraction v/v, varied in the range from 0.55 to 0.95 in constant steps of 0.05. Compounds 1–28 were dissolved in methanol (1 mg/mL). The mobile phase flow rate was 0.7 mL/min. The injection volume was 0.02 mL. All analyzes were performed at 25 °C. Experiments were performed in triplicate with similar results.
The retention coefficient k was calculated from the following relationship:(1) k=tr/tm−1, where tr [min]—retention time, and tm [min]—time for dead volume (measured by use of uracil).
To determine the linear relationship between the values of the log k parameter and the concentration of methanol in the mobile phase, the Soczewiński–Wachtmeister equation was used:(2) logk= log kw+SΦ, where log kw —value extrapolated to zero methanol concentration, Φ —methanol concentration in the mobile phase (volume fraction v/v), and S—the slope of the regression curve.
The parameter Φ0 was calculated from the equation:(3) Φ0=−log kw/S.

[2] = Lipophilicity by RP-TLC (methanol/water, HPTLC 60RP-18 plates); assay type: physicochemical; details: for −S (slope of the regression curve), RP–TLC / RM0: methanol/water, RP-TLC; for RM0: extrapolated to zero methanol concentration, 22 °C; for Φ0 (chromatographic lipophilicity parameter), RP–TLC: Φ0 = −RM0/S
Method: Specifically, 10 × 10 cm plates with silica gel HPTLC 60RP-18 WF254s (Merck, Darmstadt, Niemcy) were used as the stationary phase. Methanol and water for HPLC from POCH (Gliwice, Poland) were used as solvents. Methanol concentration expressed as volume fraction v/v, varied in the range from 0.5 to 0.7 in constant steps of 0.05. Test compounds were dissolved in methanol (2 mg/mL), and then samples (0.01 mL) of each were applied to plates, which were developed in a horizontal DS chamber (Chromdes, Lublin, Poland).
The developing distance was 8 cm. Developed plates were air-dried and observed under 254 nm ultraviolet lamp. All analyzes were performed at 22 °C. Experiments were performed in triplicate with similar results.
For all the compounds, the relative lipophilicity RM values for five methanol–water mobile phases were calculated by the use of the following formula:(4) RM=log[1−RF/RF].
The linear relationship between the RM values and the concentration of methanol in the mobile phase to determine the lipophilicity parameters RM0 is described by the following equation:(5) RM=RM0+SΦ, where Φ —methanol concentration in the mobile phase (volume fraction v/v), and S—the slope of the regression curve.
The quantity Φ0 was calculated from the following equation:(6) Φ0=−RM0/S.

SMILES	−S (slope of the regression curve), RP–HPLC [1]	log kw [1]	Φ0 (chromatographic lipophilicity parameter), RP–HPLC [1]	−S (slope of the regression curve), RP–TLC [2]	RM0 [2]	Φ0 (chromatographic lipophilicity parameter), RP–TLC [2]
O=C1N=C(NC23CC4CC(CC(C4)C2)C3)SC12CCC2 [Compound 27]	4.383	3.66	0.835	3.025	2.56	0.847
O=C1CSC(NC23CC4CC(CC(C4)C2)C3)=N1 [Compound 28, 2-(Adamantylamino)thiazol-4(5H)-one]	3.783	2.87	0.759	2.482	2.06	0.832
